In patent US20200385371A1 (Propellon Therapeutics Inc., priority 2017, published 2020):

Key:
WDR5 [1] = target: T1, WDR5 (Homo sapiens, UniProt P61964); experiment: Surface Plasmon Resonance (SPR) assay; type: binding; design: Full length WDR5 with an N-terminal His tag and C-terminal AviTag; His tag (N); made in house; host or cells: E. coli; details: read-out: SPR Kd
How it was run: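 Full-length biotinylated WDR5 (N-His, C-AviTag, E. coli) captured (~3000 RU) on streptavidin SA chip; Biacore T200. HBS-EP pH 7.4 plus 5% DMSO running buffer, 40 μl/min.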

MV4-11 cells = experiment: Cell proliferation assay (ATPlite); type: cell-based; details: Homo sapiens, 120 h; MV4-11 cells, five days; read-out: GI MV411 EC50
How it was run: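 Cells seeded at 1,000/well in Alpha-MEM with 10% FBS, treated with compound over a 10-point range (top 10 μM) or DMSO. Grown five days at 37° C, 5% CO2; viability by ATPlite luminescence.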

WDR5 [2] = target: T1, WDR5; experiment: Fluorescence Polarization (FP) binding assay
How it was run: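 Displacement of fluorescein-labelled H3 (1-15) (30 nM, with 0.3 μM WDR5) or 9-Ala-FAM (20 nM, with 0.05 μM WDR5) in 80 mM sodium phosphate pH 6.5, 20 mM KCl, 0.008% Triton X-100. FP read at 485/528 nm (H3) or 480/540 nm (9-Ala-FAM); Kdisp from hyperbolic fit, mean of quadruplicates.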

## C[C@@H]1CN(c2cc(F)c(C3=CCN(c4ncc(F)cn4)CC3)c(F)c2NC(=O)c2c[nH]c(=O)cc2C(F)(F)F)C[C@H](C)N1C [Example 145, N-(2,4-difluoro-3-(1-(5-fluoropyrimidin-2-yl)-1,2,3,6-tetrahydropyridin-4-yl)-6-((3S,5R)-3,4,5-trimethylpiperazin-1-yl)phenyl)-6-oxo-4-(trifluoromethyl)-1,6-dihydropyridine-3-carboxamide]
WDR5 [1]
  Kd: 0.84 nM
MV4-11 cells
  EC50: 58.9 nM
WDR5 [2]
  IC50: 13.9 nM

## C[C@@H]1CN(c2cc(F)c(C3=CCCN(c4ncc(F)cn4)C3)c(F)c2NC(=O)c2c[nH]c(=O)cc2C(F)(F)F)C[C@H](C)N1C [Example 146, N-(2,4-difluoro-3-(1-(5-fluoropyrimidin-2-yl)-1,2,5,6-tetrahydropyridin-3-yl)-6-((3S,5R)-3,4,5-trimethylpiperazin-1-yl)phenyl)-6-oxo-4-(trifluoromethyl)-1,6-dihydropyridine-3-carboxamide]
WDR5 [1]
  Kd: 1.65 nM
MV4-11 cells
  EC50: 239 nM
WDR5 [2]
  IC50: 21 nM

## C[C@@H]1CN(c2cc(F)c(C3=CCN(c4ncc(F)cn4)C3)c(F)c2NC(=O)c2c[nH]c(=O)cc2C(F)(F)F)C[C@H](C)N1C [Example 147, N-(2,4-difluoro-3-(1-(5-fluoropyrimidin-2-yl)-2,5-dihydro-1H-pyrrol-3-yl)-6-((3S,5R)-3,4,5-trimethylpiperazin-1-yl)phenyl)-6-oxo-4-(trifluoromethyl)-1,6-dihydropyridine-3-carboxamide]
WDR5 [1]
  Kd: 0.71 nM
MV4-11 cells
  EC50: 37.6 nM
WDR5 [2]
  IC50: 19.5 nM

## C[C@@H]1CN(c2cc(F)c(C3=CCN(c4ncc(C#N)s4)CC3)c(F)c2NC(=O)c2c[nH]c(=O)cc2C(F)(F)F)C[C@H](C)N1C [Example 148, N-(3-(1-(5-cyanothiazol-2-yl)-1,2,3,6-tetrahydropyridin-4-yl)-2,4-difluoro-6-((3S,5R)-3,4,5-trimethylpiperazin-1-yl)phenyl)-6-oxo-4-(trifluoromethyl)-1,6-dihydropyridine-3-carboxamide]
WDR5 [1]
  Kd: 2.09 nM
MV4-11 cells
  EC50: 74.9 nM
WDR5 [2]
  IC50: 12.9 nM

## C[C@@H]1CN(c2cc(F)c(C3=CCCN(c4ncc(C#N)s4)C3)c(F)c2NC(=O)c2c[nH]c(=O)cc2C(F)(F)F)C[C@H](C)N1C [Example 149, N-(3-(1-(5-cyanothiazol-2-yl)-1,2,5,6-tetrahydropyridin-3-yl)-2,4-difluoro-6-((3S,5R)-3,4,5-trimethylpiperazin-1-yl)phenyl)-6-oxo-4-(trifluoromethyl)-1,6-dihydropyridine-3-carboxamide]
WDR5 [1]
  Kd: 1.8 nM
MV4-11 cells
  EC50: 106 nM
WDR5 [2]
  IC50: 14.6 nM

## C[C@@H]1CN(c2cc(F)c(C3=CCN(c4ncc(C#N)s4)C3)c(F)c2NC(=O)c2c[nH]c(=O)cc2C(F)(F)F)C[C@H](C)N1C [Example 150, N-(3-(1-(5-cyanothiazol-2-yl)-2,5-dihydro-1H-pyrrol-3-yl)-2,4-difluoro-6-((3S,5R)-3,4,5-trimethylpiperazin-1-yl)phenyl)-6-oxo-4-(trifluoromethyl)-1,6-dihydropyridine-3-carboxamide]
WDR5 [1]
  Kd: 0.53 nM
MV4-11 cells
  EC50: 48.4 nM
WDR5 [2]
  IC50: 12.9 nM

## C[C@@H]1CN(c2cc(F)c(C3=CCN(c4ccnc(C#N)n4)CC3)c(F)c2NC(=O)c2c[nH]c(=O)cc2C(F)(F)F)C[C@H](C)N1C [Example 152, N-(3-(1-(2-cyanopyrimidin-4-yl)-1,2,3,6-tetrahydropyridin-4-yl)-2,4-difluoro-6-((3S,5R)-3,4,5-trimethylpiperazin-1-yl)phenyl)-6-oxo-4-(trifluoromethyl)-1,6-dihydropyridine-3-carboxamide]
WDR5 [1]
  Kd: 0.68 nM
MV4-11 cells
  EC50: 24 nM
WDR5 [2]
  IC50: 15.3 nM

## Cc1sc(-c2c(F)cc(N3CCN(C)[C@@H](C)C3)c(NC(=O)c3ccc(F)cc3C(F)F)c2F)nc1C(=O)N1CCCC1 [Example 153, (S)-2-(difluoromethyl)-N-(6-(3,4-dimethylpiperazin-1-yl)-2,4-difluoro-3-(5-methyl-4-(pyrrolidine-1-carbonyl)thiazol-2-yl)phenyl)-4-fluorobenzamide]
WDR5 [1]
  Kd: 1.18 nM
MV4-11 cells
  EC50: 70.1 nM
WDR5 [2]
  IC50: 5 nM

## Cc1sc(-c2c(F)cc(N3CCN(C)[C@@H](C)C3)c(NC(=O)c3ccc(F)cc3C(F)(F)F)c2F)nc1C(=O)N1CCCC1 [Example 154, (S)—N-(6-(3,4-dimethylpiperazin-1-yl)-2,4-difluoro-3-(5-methyl-4-(pyrrolidine-1-carbonyl)thiazol-2-yl)phenyl)-4-fluoro-2-(trifluoromethyl)benzamide]
WDR5 [1]
  Kd: 0.64 nM
MV4-11 cells
  EC50: 92 nM
WDR5 [2]
  IC50: 11.4 nM

## C[C@H]1CN(c2cc(F)c(-c3cnc(N4CC5CCC(C4)O5)nc3)c(F)c2NC(=O)c2c[nH]c(=O)cc2C(F)F)CCN1C [Example 155, (S)—N-(3-(2-(8-oxa-3-azabicyclo[3.2.1]octan-3-yl)pyrimidin-5-yl)-6-(3,4-dimethylpiperazin-1-yl)-2,4-difluorophenyl)-4-(difluoromethyl)-6-oxo-1,6-dihydropyridine-3-carboxamide-]
WDR5 [1]
  Kd: 1.21 nM
MV4-11 cells
  EC50: 74 nM
WDR5 [2]
  IC50: 11.2 nM

## C[C@@H]1CN(c2cc(F)c(-c3cnc(N4CC5CCC(C4)O5)nc3)c(F)c2NC(=O)c2c[nH]c(=O)cc2C(F)F)C[C@H](C)N1C [Example 156, N-(3-(2-(8-oxa-3-azabicyclo[3.2.1]octan-3-yl)pyrimidin-5-yl)-2,4-difluoro-6-((3S,5R)-3,4,5-trimethylpiperazin-1-yl)phenyl)-4-(difluoromethyl)-6-oxo-1,6-dihydropyridine-3-carboxamide]
WDR5 [1]
  Kd: 1.96 nM
MV4-11 cells
  EC50: 81.2 nM
WDR5 [2]
  IC50: 15.4 nM

## C[C@H]1CN(c2ncc(-c3c(F)cc(N4CCN(C)[C@@H](C)C4)c(NC(=O)c4ccc(F)cc4C(F)F)c3F)cn2)C[C@H](C)O1 [Example 157, 2-(Difluoromethyl)-N-(3-(2-((2S,6S)-2,6-dimethylmorpholino)pyrimidin-5-yl)-6-((S)-3,4-dimethylpiperazin-1-yl)-2,4-difluorophenyl)-4-fluorobenzamide]
WDR5 [1]
  Kd: 0.22 nM
MV4-11 cells
  EC50: 65.6 nM
WDR5 [2]
  IC50: 16.1 nM

## C[C@@H]1CN(c2ncc(-c3c(F)cc(N4CCN(C)[C@@H](C)C4)c(NC(=O)c4ccc(F)cc4C(F)F)c3F)cn2)C[C@@H](C)O1 [Example 158, 2-(Difluoromethyl)-N-(3-(2-((2R,6R)-2,6-dimethylmorpholino)pyrimidin-5-yl)-6-((S)-3,4-dimethylpiperazin-1-yl)-2,4-difluorophenyl)-4-fluorobenzamide]
WDR5 [1]
  Kd: 0.43 nM
MV4-11 cells
  EC50: 88.3 nM
WDR5 [2]
  IC50: 14 nM

## Cc1nc(C(=O)N2CC=C(c3c(F)cc(N4CCN(C)[C@@H](C)C4)c(NC(=O)c4c[nH]c(=O)cc4C(F)F)c3F)CC2)cs1 [Example 159, (S)-4-(difluoromethyl)-N-(6-(3,4-dimethylpiperazin-1-yl)-2,4-difluoro-3-(1-(2-methylthiazole-4-carbonyl)-1,2,3,6-tetrahydropyridin-4-yl)phenyl)-6-oxo-1,6-dihydropyridine-3-carboxamide]
WDR5 [1]
  Kd: 2.2 nM
MV4-11 cells
  EC50: 440 nM
WDR5 [2]
  IC50: 13.9 nM

## C[C@H]1CN(c2ncc(-c3c(F)cc(N4CCN(C)[C@@H](C)C4)c(NC(=O)c4cn(C)c(=O)cc4C(F)F)c3F)cn2)C[C@H](C)O1 [Example 160, 4-(Difluoromethyl)-N-(3-(2-((2S,6S)-2,6-dimethylmorpholino)pyrimidin-5-yl)-6-((S)-3,4-dimethylpiperazin-1-yl)-2,4-difluorophenyl)-1-methyl-6-oxo-1,6-dihydropyridine-3-carboxamide]
WDR5 [1]
  Kd: 1.36 nM
MV4-11 cells
  EC50: 254 nM
WDR5 [2]
  IC50: 14 nM

## C[C@@H]1CN(c2ncc(-c3c(F)cc(N4CCN(C)[C@@H](C)C4)c(NC(=O)c4cn(C)c(=O)cc4C(F)F)c3F)cn2)C[C@H](C)O1 [Example 161, 4-(Difluoromethyl)-N-(3-(2-((2S,6R)-2,6-dimethylmorpholino)pyrimidin-5-yl)-6-((S)-3,4-dimethylpiperazin-1-yl)-2,4-difluorophenyl)-1-methyl-6-oxo-1,6-dihydropyridine-3-carboxamide]
WDR5 [1]
  Kd: 1.1 nM
MV4-11 cells
  EC50: 79.3 nM
WDR5 [2]
  IC50: 11.9 nM

## C[C@@H]1CN(c2ncc(-c3c(F)cc(N4CCN(C)[C@@H](C)C4)c(NC(=O)c4cn(C)c(=O)cc4C(F)F)c3F)cn2)C[C@@H](C)O1 [Example 162, 4-(Difluoromethyl)-N-(3-(2-((2R,6R)-2,6-dimethylmorpholino)pyrimidin-5-yl)-6-((S)-3,4-dimethylpiperazin-1-yl)-2,4-difluorophenyl)-1-methyl-6-oxo-1,6-dihydropyridine-3-carboxamide]
WDR5 [1]
  Kd: 1.25 nM
MV4-11 cells
  EC50: 210 nM
WDR5 [2]
  IC50: 14.1 nM

## C[C@H]1CN(c2ncc(-c3c(F)cc(N4CCN(C)[C@@H](C)C4)c(NC(=O)c4cn(C)c(=O)cc4C(F)(F)F)c3F)cn2)C[C@H](C)O1 [Example 163, N-(3-(2-((2S,6S)-2,6-dimethylmorpholino)pyrimidin-5-yl)-6-((S)-3,4-dimethylpiperazin-1-yl)-2,4-difluorophenyl)-1-methyl-6-oxo-4-(trifluoromethyl)-1,6-dihydropyridine-3-carboxamide]
WDR5 [1]
  Kd: 1.1 nM
MV4-11 cells
  EC50: 83.4 nM
WDR5 [2]
  IC50: 15.3 nM
